These results are taken from US5656736A, “Compound UCH9” (Kyowa Hakko Kogyo Co., Ltd., priority 1993, dated 1997).

Data set [1] relates to Bacillus subtilis No. 10707. Nature of the data set: Antibacterial activity, agar dilution method (MIC). Format: cell-based. The settings on record: pH 7. As for the experimental part: (§1) The minimum inhibitory concentration (MIC) of the compound obtained in Example 1 against the growth of various bacteria is shown in Table 1.
(§2) The antibacterial activity was determined by the agar dilution method using a medium (pH 7) which comprises 3 g/l Bacto-tryptone (Difco Laboratories),3 g/l meat extract, 1 g/l yeast extract, 1 g/l glucose and 16 g/l agar.
In general terms: In agar dilution, organisms are placed on agar that contains the substance at set levels.

For data set [2], the system named is Staphylococcus aureus ATCC 6538P. Nature of the data set: Antibacterial activity, agar dilution method (MIC). The following applies: ATCC6538P, pH 7. Format: cell-based. As for the experimental part: as §1, §2
In data set [3] the test system is Enterococcus faecium ATCC 10541. Kind of data set: Antibacterial activity, agar dilution method (MIC). Format: cell-based. The following applies: ATCC10541, pH 7. As for the experimental part: as §1, §2
The subject of data set [4] is HeLa S3 cells (ATCC HTB22). Nature of the data set: Growth inhibition against HeLa S3 cells (Neutral Red staining). Format: cell-based. The following applies: Homo sapiens, 72 hours, 37° C. As for the experimental part: HeLa S3 cells (ATCC HTB22) were suspended in a medium comprising 10% fetal calf serum, 2 mM glutamine and MEM medium (Nippon Pharmaceutical Co., Ltd.) (hereinafter referred to as medium A) to a concentration of 3×10^4 cells/mi. The cell suspension was put into wells of a 96-well microtiter plate in an amount of 0.1 ml per well. The cells in the plate were cultured at 37° C. for 20 hours in a CO2 -incubator. Subsequently, the test compound obtained in Example 1 which was appropriately diluted with medium A was added to the wells in an amount of 0.1 ml/well. The cells were further cultured at 37° C. for 72 hours in the CO2 -incubator, and then the culture supernatant was removed. To the residue was added a medium comprising medium A and 0.02% Neutral Red in an amount of 0.1 ml per well, followed by culturing at 37° C. for one hour in the CO2 -incubator, whereby the cells were stained. After removal of the culture supernatant, the residue was washed once with physiological saline. The pigment was extracted with 0.001N hydrochloric acid/30% ethanol, and the absorbance at 550 nm was measured by using a microplate reader. The concentration of the test compound at which the growth of the cells is inhibited by 50% (IC50) was calculated by comparing the absorbance of untreated cells with those of the cells treated with the test compound at known concentrations.

A further data set can be described thus: Solubility. Format: physicochemical.

Converted amounts (≈) assume the structure as drawn. Where a name gives a salt, the structure may show the parent alone.

Broadly, the MIC is the lowest concentration that inhibits growth of the organism. Higher therefore signals a less susceptible organism. By IC50 is commonly meant the concentration at which inhibition is half-maximal. Consider `CCC(C)c1c(OC2CC(O)C(O)C(C)O2)cc2cc3c(c(O)c2c1O)C(=O)C(OC1CC(OC2CC(OC4CC(OC5CC(OC)C(O)C(C)O5)C(O)C(C)O4)C(O)C(C)O2)C(O)C(C)O1)C(C(OC)C(=O)C(O)C(C)O)C3` (centres unmarked) [UCH9], for which the MIC in data set [1] came out at 0.04 µg/mL (≈ 0.0355 µM); in data set [2], 5.2 µg/mL (≈ 4.61 µM); in data set [3], 41.6 µg/mL (≈ 36.9 µM). In data set [4], this compound showed an IC50 of 0.015 µg/mL (≈ 0.0133 µM).
Consider `CCC(C)c1c(OC2CC(O)C(O)C(C)O2)cc2cc3c(c(O)c2c1O)C(=O)C(OC1CC(OC2CC(OC4CC(OC5CC(OC)C(O)C(C)O5)C(O)C(C)O4)C(O)C(C)O2)C(O)C(C)O1)C(C(OC)C(=O)C(O)C(C)O)C3` (centres unmarked) [UCH9·1/2 magnesium salt], for which the Solubility result was “sparingly soluble” in the data set “Solubility” (chloroform), “Soluble” in “Solubility” (dimethylsulfoxide (DMSO)), “Soluble” in the data set “Solubility” (methanol) and “sparingly soluble” in the data set “Solubility” (water).
